Assay results reported in patent US20230042961A1, “FUNGICIDAL COMPOUNDS AND MIXTURES FOR FUNGAL CONTROL IN CEREALS” (Dow AgroSciences LLC, priority 2017, published 2023).

Assays:
[1] = test system: Puccinia striiformis (PUCCST); test: Field assessment of yellow rust of wheat (PUCCST), 2 field trials; format: in vivo, Puccinia striiformis on wheat (TRZAW); details: relative AUDPC, average of 2 field trials, with Agnique BP-420
Description: (§1) Treatments consisted of the compound of Formula I and the compound of Formula II either using individually or as a two-way mixture with the compound of Formula I. The compound of Formula I was applied with Agnique BP-420 (50% w/w at 0.3% v/v) at 75 and 150 g ai/ha and the compound of Formula II was applied with Agnique BP-420 (50% w/w at 0.3% v/v) at 20, 40, and 60 g ai/ha. Commercial standards used in the studies were Fluxapyroxad (Imtrex), applied at 100 g ai/ha, and Metconazole+Fluxapyroxad (Librax), applied at 161 g ai/ha.
Field Assessment of Puccinia striiformis (PUCCST) in Wheat:
Fungicidal treatments containing the compound of Formula I and the compound of Formula II, either individually or as a two way mixture, were assessed against yellow rust of wheat (PUCCST) in two separate field trials. In the first trial, fungicidal treatments were applied twice at B31-32 (early curative, 4% infection at application on L3) and B39 (16.3% infection at application on L3) growth stages of winter wheat (TRZAW, Fairplay variety) under naturally occurring infection with PUCCST. The treatments were part of an experimental trial designed as a randomized complete block with four replications and a plot of approximately 1×6 m. Treatments were applied at water volume of 200 L/ha, using a backpack plot sprayer (BKPCKENG, F110-015 Hardi (3) Flat fan nozzle) and pressurized at 200 kPa.
In the second trial, fungicidal treatments containing the compound of Formula I and the compound of Formula II, either individually or as a two way mixture, were applied twice at B32 (protectant, 0% infection on L3 at application) and B37 (early curative, 20% infection on L3 at application) growth stages of wheat (TRZAW, Torch variety) under naturally occurring infection with PUCCST. The treatment was part of an experimental trial designed as a randomized complete block with four replications and a plot of approximately 2×4 m. Treatments were applied at water volume of 200 L/ha, using a backpack precision plot sprayer (BKCKAIR, F110-03 Hypro (4) Flat fan nozzle) and pressurized at 210 kPa.
(§2) Disease severity (percentage of visual diseased foliage on whole plot or leaves) in both field trials was assessed at 4-7 weeks after application and was recorded following EPPO PP1/26 guideline prescriptions. Area under the disease progress curve (AUDPC) was calculated for each plot in both trials using the sets of recorded severity data. Relative AUDPC (% control based on AUDPC) was calculated as percent of the nontreated control. Final results for the control of yellow rust of wheat by the compound of Formula I, the compound of Formula II, and mixtures are reported as an average of the relative AUDPC calculated over both field trials. Statistical analysis was done according to ANOVA and Tukey's test (p=0.10).

[2] = test system: Zymoseptoria tritici (SEPTTR); test: Field assessment of leaf blotch of wheat (SEPTTR), 3 field trials; format: in vivo, Zymoseptoria tritici on winter wheat (TRZAW); details: relative AUDPC, average of 3 field trials, with Agnique BP-420
Description: as §1
Field Assessment of Zymoseptoria tritici (SEPTTR) in Wheat:
Fungicidal treatments containing the compound of Formula I and the compound of Formula II, either individually or as a two way mixture, were assessed against leaf spot of wheat (SEPTTR) in three separate field trials. In the first trial, fungicidal treatments were applied at B37 (curative, 1.8% infection at application on L4) growth stage of winter wheat (TRZAW, Sy moisson variety) under naturally occurring infection with SEPTTR. The treatments were part of an experimental trial designed as a randomized complete block with four replications and a plot of approximately 2×4 m. Treatments were applied at water volume of 200 L/ha, using a backpack plot sprayer (BKPCKAIR, FLAT FAN nozzle) and pressurized at 250 kPa.
In the second trial, fungicidal treatments were applied twice at B32 (curative, 15% infection at application on L5) and B39 (16% infection at application on L4) growth stages of winter wheat (TRZAW, Riband variety) under naturally occurring infection with SEPTTR. The treatments were part of an experimental trial designed as a randomized complete block with four replications and a plot of approximately 1.5×2 m. Treatments were applied at water volume of 200 L/ha, using a backpack plot sprayer (BKPCKAIR, Flat fan nozzle) and pressurized at 180 kPa.
In the final trial, fungicidal treatments were applied twice at B32 (protective, 15% infection at application on L6) and B37 (12% infection at application on L5) growth stages of winter wheat (TRZAW, Smaragd variety) under naturally occurring infection with SEPTTR. […]
as §2, with “at 7-9” for “at 4-7”, “of leaf spot” for “of yellow rust”, “over all three” for “over both”, “trials. […]” for “trials. Statistical analysis was done according to ANOVA and Tukey's test (p=0.10).”

[3] = test system: Puccinia recondita (PUCCRT); test: Field assessment of brown rust of wheat (PUCCRT), 2 field trials; format: in vivo, Puccinia recondita on wheat (TRZAW); details: relative AUDPC, average of 2 field trials, with Agnique BP-420
Description: as §1
Field Assessment of Puccinia recondita (PUCCRT) in Wheat:
Fungicidal treatment containing the compound of Formula I and the compound of Formula II, either individually or as a two mixture, were assessed against brown rust of wheat (PUCCRT) in two separate field trials. In the first trial, fungicidal treatments were applied at B37-39 (protectant, approximately 0% infection at application) growth stage of wheat (TRZAW, MV Vanek variety) under natural infection of brown rust. The treatment was part of an experimental trial designed as a randomized complete block with four replications and a plot of approximately 2×3 m. Fungicidal treatments were applied at a water volume of 200 L/ha, using a backpack plot sprayer with a TEEJET QJ90-2XTT110 015 Nozzle.
In the second trial, fungicidal treatments containing the compound of Formula I and the compound of Formula II, either individually or as a two way mixture, were applied at B33 (curative, approximately 6.6% infection at application) growth stage of wheat (TRZAW, Miradoux variety) under natural infection of brown rust. The treatments were part of an experimental trial designed as a randomized complete block with four replications and a plot of approximately 2×3 m. Fungicidal treatments were applied at a water volume of 200 L/ha, using a backpack plot sprayer with a HARDI MD110-02 Nozzle.
as §2, with “5” for “4-7”, “brown” for “yellow”

Structure (SMILES)	PUCCST % Control ([1]; 40 g ai/ha) [%]	PUCCST % Control ([1]; 60 g ai/ha) [%]	SEPTTR % Control ([2]; 20 g ai/ha) [%]	SEPTTR % Control ([2]; 40 g ai/ha) [%]	PUCCRT % Control ([3]; 20 g ai/ha) [%]	PUCCRT % Control ([3]; 40 g ai/ha) [%]	PUCCST % Control ([1]; 75 g ai/ha) [%]	PUCCST % Control ([1]; 150 g ai/ha) [%]	SEPTTR % Control ([2]; 75 g ai/ha) [%]	SEPTTR % Control ([2]; 150 g ai/ha) [%]	PUCCRT % Control ([3]; 75 g ai/ha) [%]	PUCCRT % Control ([3]; 150 g ai/ha) [%]
COc1ccnc(C(=O)N[C@@H](C)C(=O)O[C@@H](C)C(c2ccc(F)cc2)c2ccc(F)cc2)c1OC(C)=O [Compound II, (S)-1,1-bis(4-fluorophenyl)propan-2-yl (3-acetoxy-4-methoxypicolinoyl)-L-alaninate]	50.6	56.2	35.1	52.2	45.4	64.7						
N#Cc1ccc(Oc2ccc(C(F)(F)C(O)(Cn3nc[nH]c3=S)c3ccc(F)cc3F)nc2)cc1 (stereo not drawn) [Compound I, 4-((6-(2-(2,4-difluorophenyl)-1,1-difluoro-2-hydroxy-3-(5-thioxo-4,5-dihydro-1H-1,2,4-triazol-1-yl)propyl)pyridin-3-yl)oxy)benzonitrile]							83.4	87.7	50.3	73.8	79.7	89.0
